Assay results from publication PMC8333425, “Discovery of a dual Ras and ARF6 inhibitor from a GPCR endocytosis screen” (Nature Communications, 2021).
Where “and” joins values, the source holds several entries; their conditions need not be identical. Equal values may be shown once.

Tests used:
ARF6 = molecular target: T1, ARF6 (Homo sapiens, UniProt P62330); experiment: GST-GGA3-PBD pull-down of AT1R-mediated HA-ARF6 activation; format: cell-based; settings: for ARF6-GTP/ARF6, GST-GGA3-PBD pull down: Comp 21 50 μM, individual experiments
T1 construct: expressed in transfected cells; host or cells: HEK293SL
Description: HEK293 cells were transfected with a BRET sensor that monitors the interaction between β-arrestins and the β-appendage of AP-2 (Fig. 2a)[26],[33]. […] The small GTPase ARF6, which binds β-arrestins and facilitates AP-2 and clathrin recruitment at the PM, is also necessary for CCPs initiation and receptor internalization. Therefore, ARF6 activity was assessed using the protein-3 binding domain (PBD) of the golgi-associated, gamma adaptin ear-containing, ARF-binding protein 3 (GGA3) fused to GST (GST-GGA3-PBD) in a pull-down assay, which allows the detection of GTP-bound ARF6 in cells[34] (Fig. 2b). […] This inhibition was selective for ARF6 since 21 had no effect on AT1R-dependent ARF1 activation (Supplementary Fig. 2a). We also devised a BRET assay to quantitatively assess 21’s action on ARF activity. The ARF BRET assay was created using the GGA3-PBD fused to RlucII (GGA3-PBD-RlucII) and the rGFP anchored at the PM (rGFP-CAAX) (Supplementary Fig. 3a). […] 21 blocked ARF’s activation by 40–60% following AT1R stimulation (Fig. 2c).
Activation of ARF1, ARF6, Ras, and Rho were assessed by using GST pull-down assays. HEK293SL cells were transiently transfected with 3 µg AT1R-flag only (Ras and Rho) or along with 500 ng HA-ARF6 (ARF6) or HA-ARF1 (ARF1). Forty-eight hours later, the HEK293 or MDA-MB-231 cells were serum-starved for 4 h with DMEM containing 20 mM HEPES then pretreated with DMSO or Rasarfin (50 µM) for 30 min. Cells were then stimulated with 1 µM AngII or 100 ng/ml EGF for 0 and 2 min. Cells were then washed once with ice-cold PBS and lysed for 30 min at 4 °C in 300 µl of lysis buffer (pH 7.5, 50 mM Tris-HCl, 140 mM NaCl, 5 mM MgCl2, 10% glycerol (v/v), 1% Nonidet P-40 (v/v), 1 mM dithiothreitol) supplemented with protease inhibitors (1 mM phenylmethyl-sulfonyl fluoride (PMSF), 10 µg/ml leupeptin, 5 µg/ml aprotinin, 1 µg/ml pepstatin A) and phosphatase inhibitors (20 mM NaF, 0.025 mM pervanadate). […] ImageLab 5.2 software was used to quantify the digital blots as fold of the amount of pulled down protein over total protein. […]

Ras = experiment: GST-Raf1-RBD pull-down of EGFR-mediated Ras activation; format: cell-based, human; settings: for Ras-GTP over total Ras, GST-Raf1-RBD pull-down, EGFR: Comp 21 50 μM, individual experiments
Excerpt: Since 21 inhibited both ERK1/2 and Akt activation by GPCRs and EGFR, we looked at a common target involved in both pathways. The small G protein Ras is an upstream regulator of both Ras-RAF-MEK-ERK and PI3K/Akt signaling pathways[35],[36]. Therefore, we explored 21’s ability to inhibit Ras activity using GST-Raf1-Ras-binding domain (RBD) in a pull-down assay. A reduction of 60% in GTP-bound Ras was noticed in pulled-down from cells treated with 21 and stimulated with either AT1R or EGFR, as compared to vehicle-treated cells (Fig. 4a, b). Complementary to this in vitro assay, we generated a Ras BRET assay, using the Raf-Ras binding domain tagged with RlucII (Raf1-RBD-RlucII) and the rGFP at the PM (rGFP-CAAX) (Supplementary Fig. 3c), to assess 21’s effects on Ras activation kinetics. […] Overexpression of either the active form of Ras (G12V) or SOS1 anchored at the PM (SOS-CAAX) produced a robust basal BRET signal that was no longer modulated by receptor activation (Supplementary Fig. 3d). […] 21’s potency to inhibit ARF6 and Ras is also consistent with its relative efficacy for inhibiting AT1R internalization and MAPK, respectively, when used at 50 μM (e.g., around 7 and 70 times the respective IC50s) (Figs. 2e and 3a). We also assessed if 21 was acting as a pan small G protein inhibitor by testing its effect on Rho and Rac/Cdc42. […] To assess Rac/Cdc42 activity, we generated a Rac/Cdc42 BRET sensor that consisted of the PAK-CRIB domain fused to RlucII (PAK-CRIB-RlucII) and the rGFP-CAAX (Supplementary Fig. 3e). PAK-CRIB, which binds to active Rac/Cdc42, was recruited to the PM upon AngII stimulation of cells and generated a robust BRET signal, which was blocked by the overexpression of the DN Rac1-T17N. Overexpression of the constitutively active Rac1-Q61L increased the basal BRET, which was no longer modulated by AT1R stimulation (Supplementary Fig. 3f).
Activation of ARF1, ARF6, Ras, and Rho were assessed by using GST pull-down assays. […] ImageLab 5.2 software was used to quantify the digital blots as fold of the amount of pulled down protein over total protein. […]

T1 sequence (P62330 whole entry, species assumed): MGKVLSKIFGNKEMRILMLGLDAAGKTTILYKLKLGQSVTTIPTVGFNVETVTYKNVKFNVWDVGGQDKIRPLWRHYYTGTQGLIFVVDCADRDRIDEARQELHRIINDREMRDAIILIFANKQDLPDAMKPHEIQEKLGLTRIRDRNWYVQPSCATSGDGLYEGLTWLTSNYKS

## CC(C)C(=O)N1CCN(c2ccc(NC(=O)c3cc4ccccc4o3)cc2Cl)CC1 [Compound 21]
ARF6; 50 μM, read-out: inhibition of ARF6-GTP (AngII-stimulated cells, pull-down)
  inhibition at 50 µM: > 70%
ARF6; AngII
  ARF6-GTP/ARF6, GST-GGA3-PBD pull down: 0.1415 and 0.1921 and 0.09307 and 0.2014
ARF6; Control (no AngII)
  ARF6-GTP/ARF6, GST-GGA3-PBD pull down: 0.0894 and 0.1773 and 0.03131 and 0.1335
Ras; 50 μM, compared to vehicle-treated cells
  reduction in GTP-bound Ras, EGFR-stimulated cells (pull-down): 60%
Ras; Ctrl (no EGF)
  Ras-GTP over total Ras, GST-Raf1-RBD pull-down, EGFR: 0.1945 and 0.09698 and 0.1503
Ras; EGF
  Ras-GTP over total Ras, GST-Raf1-RBD pull-down, EGFR: 1.319 and 0.978 and 0.8185
